Among the data in patent US6608027B1, “Macrocyclic peptides active against the hepatitis C virus” (Boehringer Ingelheim (Canada) Ltd, priority 1999, dated 2003) are IC50 and ring closure, yield of all isomers values, retold here.

The target of one series is HCV NS3 protease type 1b (Hepatitis C virus genotype 1b, UniProt P26663). The series is described as follows: Recombinant HCV NS3 protease radiometric assay. Format: biochemical. Here is the method:
The substrate used for the HCV NS3 protease radiometric assay, DDIVPC-SMSYTW (SEQ. ID NO.: 2), is cleaved between the cysteine and the serine residues by the enzyme. The sequence DDIVPC-SMSYTW (SEQ. ID NO.: 2) corresponds to the NS5A/NS5B natural cleavage site in which the cysteine residue in P2 has been substituted for a proline. The peptide substrate DDIVPC-SMSYTW (SEQ. ID NO.: 2) and the tracer biotin-DDIVPC-SMS[^125I-Y]TW (SEQ. ID NO.: 3) were incubated with the recombinant NS3 protease in the absence or in the presence of inhibitors. The separation of substrate from products was performed by adding avidin-coated agarose beads to the assay mixture followed by filtration. The amount of SMS[^125I-Y]TW (SEQ. ID NO.: 4) product found in the filtrate (with or without inhibitor) allowed for the calculation of the percentage of substrate conversion and of the percentage of inhibition.
Assay buffer: 50 mM Tris-HCl, pH 7.5, 30% (w/v) glycerol, 2% (w/ v) CHAPS, 1 mg/mL BSA, 1 mM TCEP (TCEP added just prior to use from a 1 M stock solution in water).
Substrate: DDIVPC-SMSYTW (SEQ. ID NO.: 2), 25 μM final concentration (from a 2 mM stock solution in DMSO stored at −20° C. to avoid oxidation).
Tracer: reduced mono-iodinated substrate(biotin-DDIVPC-SMS[^125I-Y]TW (SEQ. ID NO.: 3)) (≈1 nM final concentration).
HCV NS3 protease type 1b, 25 nM final concentration (from a stock solution in 50 mM sodium phosphate, pH 7.5, 10% glycerol, 300 mM NaCl, 5 mM DTT, 0.01% NP-40).
The assay was performed in a 96-well polypropylene plate. Each well contained:
20 μL substrate/tracer in assay buffer;
10 μL±inhibitor in 20% DMSO/assay buffer;
Blank (no inhibitor and no enzyme) and control (no inhibitor) were also prepared on the same assay plate.
The enzymatic reaction was initiated by the addition of the enzyme solution and the assay mixture was incubated for 60 min at 23° C. under gentle agitation. Twenty (20) μL of 0.025 N NaOH were added to quench the enzymatic reaction.
Twenty (20) μL of avidin-coated agarose beads (purchased from Pierce®) were added in a Millipore® MADP N65 filtration plate. The quenched assay mixture was transferred to the filtration plate, and incubated for 60 min at 23° C. under gentle agitation.
The plates were filtered using a Millipore® MultiScreen Vacuum Manifold Filtration apparatus, and 40 μL of the filtrate was transferred to an opaque 96-well plate containing 60 μL of scintillation fluid per well.
The filtrates were counted on a Packard® TopCount instrument using a ^125I-liquid protocol for 1 minute. The %inhibition was calculated with the following equation:
100−[(countsinh−countsblank)/(countsctl−countsblank)×100] […]

For series [1], the target named is T1, His-NS3-NS4AFL (full-length NS3-NS4A protein complex) (Hepatitis C virus genotype 1b, UniProt P26663).
T1 construct: made in house; host or cells: Sf21 insect cells, recombinant baculovirus (Bac-to-Bac, pFastBac HTa)
The series is described as follows: Full-length NS3-NS4A heterodimer protein fluorogenic assay. Format: biochemical, HCV genotype 1b. The source says: The NS2-NS5B-3′non coding region was cloned by RT-PCR into the pCR®3 vector (Invitrogen) using RNA extracted from the serum of an HCV genotype 1b infected individual (provided by Dr. Bernard Willems, Hôpital St-Luc, Montréal, Québec, Canada). The NS3-NS4A region (NS3-NS4AFL) was then subcloned by PCR into the pFastBac™ HTa baculovirus expression vector (Gibco/BRL). The vector sequence includes a region encoding a 28-residue N-terminal sequence which contains a hexahistidine tag. The Bac-to-Bac™ baculovirus expression system (Gibco/BRL) was used to produce the recombinant baculovirus. His-NS3-NS4AFL was expressed by infecting 10^6 Sf21 cells/mL with the recombinant baculovirus at a multiplicity of infection of 0.1-0.2 at 27°. Authentic auto-proteolysis occurs during expression to produce a non covalent and stable NS3-NS4A protein complex (referred to as full-length “FL”). The infected culture was harvested 48 to 64 h later by centrifugation at 4°. The cell pellet was homogenized in 50 mM NaPO4, pH 7.5, 40% glycerol (w/v), 2 mM β-mercaptoethanol, in presence of a cocktail of protease inhibitors. His-NS3-NS4AFL was then extracted from the cell lysate with 1.5% NP-40, 0.5% Triton X-100, 0.5M NaCl, and a DNase treatment. After ultracentrifugation, the soluble extract was diluted 4-fold and bound on a Pharmacia Hi-Trap Ni-chelating column. The His-NS3-NS4AFL was eluted in a >90% pure form (as judged by SDS-PAGE), using a 50 to 400 mM imidazole gradient. The His-NS3-NS4AFL was stored at −80° in 50 mM sodium phosphate, pH 7.5, 10% (w/v) glycerol, 0.5 M NaCl, 0.25 M imidazole, 0.1% NP-40. It was thawed on ice and diluted just prior to use.
The protease activity of His-NS3-NS4AFL was assayed in 50 mM Tris-HCl, pH 8.0, 0.25 M sodium citrate, 0.01% (w/v) n-dodecyl-β-D-maltoside, 1 mM TCEP. Five (5) μM of the internally quenched substrate anthranilyl-DDIVPAbu[C(O)—O]-AMY(3-NO2)TW-OH (SEQ. ID NO.: 1) in presence of various concentrations of inhibitor were incubated with 1.5 nM of His-NS3-NS4AFL for 45 min at 23°. […] The reaction was terminated with the addition of 1M MES, pH 5.8. Fluorescence of the N-terminal product was monitored on a Perkin-Elmer LS-50B fluorometer equipped with a 96-well plate reader (excitation wavelength: 325 nm, emission wavelength: 423 nm).
The % inhibition was calculated with the following equation:
100−[(fluoinh−fluoblank)/(fluoctl−fluoblank)×100]
A non-linear curve fit with the Hill model was applied to the inhibition-concentration data, and the 50% effective concentration (IC50) was calculated by the use of SAS software (Statistical Software System; SAS Institute, Inc. Cary, N.C.).

[2] abbreviates: asterisk (*) = radiometric assay of Example 49, read-out: enzyme activity (IC50 grade), asterisk.
The mark [3] stands for this setting: fluorogenic assay of Example 48, no asterisk, read-out: enzyme activity (IC50 grade).

Like-named read-outs stand apart in the source and are kept apart here. Where only a bound is given, the exact number is not on record here.

T1 sequence (P26663 1658-1711): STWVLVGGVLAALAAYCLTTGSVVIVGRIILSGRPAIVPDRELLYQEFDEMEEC
T1 sequence (P26663 1027-1657): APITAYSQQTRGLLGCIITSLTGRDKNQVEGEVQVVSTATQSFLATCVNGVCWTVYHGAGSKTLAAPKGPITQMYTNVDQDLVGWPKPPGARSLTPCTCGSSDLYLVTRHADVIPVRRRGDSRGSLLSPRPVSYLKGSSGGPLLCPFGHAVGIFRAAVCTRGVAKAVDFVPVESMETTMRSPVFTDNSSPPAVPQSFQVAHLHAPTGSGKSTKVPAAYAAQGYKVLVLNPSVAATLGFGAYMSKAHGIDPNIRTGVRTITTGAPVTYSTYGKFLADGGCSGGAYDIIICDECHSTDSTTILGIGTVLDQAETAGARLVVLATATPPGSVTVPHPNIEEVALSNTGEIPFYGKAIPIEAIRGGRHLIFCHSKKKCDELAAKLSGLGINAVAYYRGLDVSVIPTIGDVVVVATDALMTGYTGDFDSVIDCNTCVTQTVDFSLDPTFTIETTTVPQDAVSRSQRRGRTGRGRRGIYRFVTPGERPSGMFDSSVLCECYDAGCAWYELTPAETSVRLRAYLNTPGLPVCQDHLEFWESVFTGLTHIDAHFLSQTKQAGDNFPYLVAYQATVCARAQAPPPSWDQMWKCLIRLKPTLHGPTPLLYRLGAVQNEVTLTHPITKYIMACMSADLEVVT
Sequence of HCV NS3 protease type 1b (P26663 1027-1208): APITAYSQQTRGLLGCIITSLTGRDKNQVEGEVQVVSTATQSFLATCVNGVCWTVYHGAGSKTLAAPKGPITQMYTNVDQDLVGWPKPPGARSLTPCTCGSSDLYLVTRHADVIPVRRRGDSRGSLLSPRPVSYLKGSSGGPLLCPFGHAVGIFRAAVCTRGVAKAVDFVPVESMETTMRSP

`COc1ccc2c(O[C@@H]3C[C@H]4C(=O)N[C@]5(C(=O)O)C[C@H]5CC/C=C\CS[C@@H](C)[C@H](NC(=O)OC(C)(C)C)C(=O)N4C3)cc(-c3ccccc3)nc2c1` [Compound 411]: the IC50 on HCV NS3 protease type 1b (setting [2]) is > 1 µM. In turn, `COC(=O)[C@@]12CC1C=CCCCCC[C@H](NC(=O)OC(C)(C)C)C(=O)N1C[C@@H](O)C[C@H]1C(=O)N2` (stereo partly drawn) returned a ring closure, yield of all isomers (from C=CCCCCC[C@H](NC(=O)OC(C)(C)C)C(=O)N1C[C@@H](O)C[C@H]1C(=O)N[C@]1(C(=O)OC)CC1C=C, rcm bond, Hoveyda's catalyst, CH2Cl2, 9.85 mM, 40.0 °C, 28.0 h) of 89%. With `COc1ccc2c(O[C@@H]3C[C@H]4C(=O)N[C@]5(C(=O)O)C[C@H]5CCN(C)CCCC[C@H](NC(=O)OC(C)(C)C)C(=O)N4C3)cc(-c3ccccc3)nc2c1` [Cpd 504], at HCV NS3 protease type 1b (setting [2]), the IC50 was > 1 µM. Same read-out and setting: under `COc1ccc2c(O[C@@H]3C[C@H]4C(=O)N[C@]5(C(=O)O)C[C@@H]5CCCCC[C@H](NC(=O)OC(C)(C)C)C(=O)N4C3)cc(-c3ccccc3)nc2c1` [Compound 306] stands > 1 µM. As for `COC(=O)[C@@]12C[C@H]1CCCCNCC[C@H](NC(=O)OC(C)(C)C)C(=O)N1C[C@H](Oc3cc(-c4ccccc4)nc4cc(OC)ccc34)C[C@H]1C(=O)N2`, the ring closure, yield of all isomers (from COC(=O)[C@@]1(NC(=O)[C@@H]2C[C@@H](Oc3cc(-c4ccccc4)nc4cc(OC)ccc34)CN2C(=O)[C@H](CCNC(=O)OCc2ccccc2)NC(=O)OC(C)(C)C)C[C@H]1CCCC=O, amine bond, H2, Pd(OH)2, AcOH, ethanol, 44.0 mM, 25.0 °C, 40.0 h, 2 steps) came to 30%. Regarding `COc1ccc2c(O[C@@H]3C[C@H]4C(=O)N[C@]5(C(=O)O)C[C@H]5CCCCCCC[C@H](NC(C)=O)C(=O)N4C3)cc(-c3ccccc3)nc2c1` [Compound 219], the IC50 in series [1] was < 0.1 µM. For the compound `COc1ccc2c(O[C@@H]3C[C@H]4C(=O)N[C@]5(C(=O)O)CC5CC/C=C/CO[C@H](C)[C@H](NC(=O)OC(C)(C)C)C(=O)N4C3)cc(-c3ccccc3)nc2c1` (stereo partly drawn) [Compound 404], the IC50 in series [1] (setting [3]) was 0.1 to 1 µM. The same measure, in the same setting: the result for `COc1ccc2c(O[C@@H]3C[C@H]4C(=O)N[C@]5(C(=O)O)C[C@@H]5/C=C/CCC[C@H](NC(=O)OC(C)(C)C)C(=O)N4C3)cc(-c3ccccc3)nc2c1` [Compound 302] reads > 1 µM.

Consider `CC(C)(C)OC(=O)N[C@H]1CCCCC/C=C\[C@@H]2C[C@@]2(C(=O)O)NC(=O)[C@@H]2C[C@@H](Oc3cc(C(F)(F)F)nc4cc(O)ccc34)CN2C1=O` [Compound 602], for which the IC50 in series [1] (setting [3]) is < 0.1 µM. In the case of `COc1ccc2c(O[C@@H]3C[C@H]4C(=O)N[C@]5(C(=O)O)C[C@H]5/C=C\CCCCC[C@H](N)C(=O)N4C3)cc(-c3ccccc3)nc2c1` [Compound 211], the IC50 in series [1] was < 0.1 µM.

Take `CC(C)(C)OC(=O)N[C@H]1CCCCC/C=C\[C@@H]2C[C@@]2(C(=O)O)NC(=O)[C@@H]2C[C@@H](Oc3ccnc4ccccc34)CN2C1=O` [Compound 206]: the IC50 in series [1] was < 0.1 µM.

With `CC(C)(C)OC(=O)N[C@H]1CCCCCC=CCCC2CC2(C(=O)O)NC(=O)[C@@H]2C[C@@H](Oc3ccnc4ccccc34)CN2C1=O` (single isomer, unassigned) [Compound 301], in series [1] (setting [3]), the IC50 fell in the range of 0.1 to 1 µM. Same read-out and setting: the result for `COc1ccc2c(O[C@@H]3C[C@H]4C(=O)N[C@]5(C(=O)O)C[C@H]5/C=C\CCCCCC[C@H](NC(=O)OC(C)(C)C)C(=O)N4C3)cc(-c3csc(NC(C)=O)n3)nc2c1` [Compound 307] reads < 0.1 µM. As for `COc1ccc2c(O[C@@H]3C[C@H]4C(=O)N[C@@]5(C(=O)O)C[C@@H]5/C=C\CCCCC[C@H](NC(=O)OC(C)(C)C)C(=O)N4C3)cc(-c3ccccc3)nc2c1` [Compound 210], the IC50 at HCV NS3 protease type 1b is > 1 µM. Regarding `COc1ccc2c(O[C@@H]3C[C@H]4C(=O)N[C@]5(C(=O)O)C[C@@H]5/C=C\CCCCC[C@H](NC(=O)OC(C)(C)C)C(=O)N4C3)cc(-c3nccs3)nc2c1` [Compound 220], the IC50 in series [1] is < 0.1 µM.
